Patent publication US20040186022A1, “Enhanced herbicides” (priority 1999, published 2004)

Tests used:
[1] = system: 60 G/a: black nightshade, redroot pigweed, lambsquarter, foxtail, velvetleaf and snapbeans; spray to drip: redroot pigweed, lambsquarter, velvetleaf and …; assay: Efficacy of 2% caprylic with succinic or ammonium succinate in an emulsification system (Emsorb 6900); type: in vivo
From the text: (§1) The herbicides were applied in the “spray to drip” amount or at a calibrated 20-60 gallons/acre. “Spray to drip” is an uncalibrated application of fluid to foliage, where sufficient spray volume is used to sufficiently saturate the foliage surface until excess fluid begins to drip from the foliage.

young potato plants = assay: Effects of desiccants and desiccant combinations with other compounds on young potato plants; type: in vivo; design: All evaluations (total score): scale not given here
From the text: as §1

[2] = system: 60 G/a: lambsquarter, pigweed, velvetleaf and foxtail; spray to drip: velvetleaf and foxtail; assay: Herbicidal activity of caprylic acid combined with salts of succinate +/- sodium salicylate; type: in vivo
From the text: as §1

[3] = system: 60 G/a: redroot pigweed, foxtail and velvetleaf; spray to drip: foxtail, dry beans and pigweed; assay: Herbicidal activity: caprylic acid and succinic acid +/- ammonium sulfate; type: in vivo
From the text: as §1

[4] = Measurement of pH values for test desiccants (Example 56); type: physicochemical
[5] = Measurement of pH values for test desiccants (Example 55); type: physicochemical
soybeans [6] = assay: Synergy comparisons of various organic acids with caprylic acid, testing soybeans; type: in vivo; details: 3 days after a single foliar application, average of 2 sites, soybean Stine 2250
From the text: as §1

[7] = system: 40 G/a: crab grass, chickweed and common lambsquarter; 60 G/a: redtop, pigweed, foxtail; spray to drip: barnyard grass, foxtail, sudan grass and nutsedge; assay: Herbicidal combinations of caprylic/capric (c/c) or pelargonic acid with equimolar succinic acid and ammonium succinate, on weed varieties; type: in vivo; details: footnote
Turf = assay: Synergistic relationships between succinic acid and caprylic acid (or sodium salicylate), testing turf; type: in vivo; details: 2 days after a single foliar application, 5 equals profound desiccation
From the text: as §1

[8] = system: 60 G/a: black nightshade, redroot pigweed, foxtail, lambsquarter and snapbeans; spray to drip: redroot pigweed, velvetleaf, nutsedge and foxtail; assay: Efficacy of 3% caprylic with succinic or ammonium succinate in an emulsification system (Emsorb 6900); type: in vivo
From the text: as §1

plants [9] = assay: Herbicidal activity: comparison of caprylic, pelargonic and an equimolar mixture of caprylic and pelargonic acids; type: in vivo
From the text: The herbicides were applied in the “spray to drip” amount or at a calibrated 20-60 gallons/acre. “Spray to drip” is an uncalibrated application of fluid to foliage, where sufficient spray volume is used to sufficiently saturate the foliage surface until excess fluid begins to drip from the foliage. In general, about 5 to 200 gallons/acre, preferably 20-100 gallons/acre can be effective.

[10] = system: black beans (dry bean variety T39); assay: Synergistic interactions of succinic acid and di-ammonium succinate with other herbicidal compounds, dry beans (black); type: in vivo; details: for Injury rating, average per plot: scale 1-5
From the text: as §1

[11] = system: 60 G/a: velvetleaf, black nightshade, redroot pigweed, foxtail and snapbeans; spray to drip: black nightshade, velvetleaf, foxtail and snapbeans; assay: Efficacy of 1.5% succinic acid with oleic, caprylic or pelargonic acid in an emulsification system (Emsorb 6900); type: in vivo; design: Injury rating, total score for 2 evaluation, Spray to drip / Injury rating, total score for 2 evaluation, Total Rating: scale not given here
From the text: as §1

[12] = system: navy dry beans (navy Vista); assay: Synergistic interactions of succinic acid and di-ammonium succinate with herbicidal compounds, navy dry beans; type: in vivo, dry bean (navy); details: for Injury rating, average per plot: scale 1-5
From the text: as §1

plants [13] = assay: Synergistic relationship between succinic acid and caprylic/capric acids C/C, herbicidal activity; type: in vivo
From the text: as §1

[14] = system: 40 G/a: crab grass, pigweed, chick weed and foxtail; 60 G/a: pigweed, Kentucky bluegrass, foxtail, crab grass and barnyard grass; spray to drip: Kentucky …; assay: Herbicidal activities: synergy between succinic acid and pelargonic acid; type: in vivo
From the text: as §1

soybeans [15] = assay: Synergistic relationships: succinic acid + caprylic acid, succinic acid + sodium salicylate, testing soybeans; type: in vivo; details: 3 days after a single foliar application, soybean Stine 2250
From the text: as §1

[16] = system: 60 G/a: lambsquarter, pigweed and velvetleaf; spray to drip: lambsquarter and foxtail; assay: Herbicidal activity of caproic acid with succinic acid and sodium salicylate; type: in vivo
From the text: as §1

[17] = 60 G/a, rating 1-5 per pot, 1% Emsorb, 0.3% Hasten
[18] = rating 1 to 5, 5 = complete desiccation of all plants
[19] = Day 2, one application at 40 G/acre, treatments 1-4, 9-11 in Emsorb 6900/mineral oil/Hasten, 5-8, 12-14 in 0.3% Sylgard 309
[20] = Day 1, one application at 40 G/acre, treatments 1-4, 9-11 in Emsorb 6900/mineral oil/Hasten, 5-8, 12-14 in 0.3% Sylgard 309

CCCCCCCC(=O)O [2% caprylic, caprylic acid]
Injury rating, total score for 2 evaluations, Total Rating ([1]; 60 G/a plus spray to drip): 123.4
Injury rating, total score for 2 evaluations, 60 G/a [1, 17]: 73.6
Average rating per pot ([1]; scale 1-5): 4.11
Injury rating, total score for 2 evaluations, Spray to drip ([1]; spray to drip): 49.8
Injury ratings of treated plants, day 1 (young potato plants; 1 day after application, 6 = complete desiccation): 5
Injury ratings of treated plants, day 3 (young potato plants; 3 days after application, 6 = complete desiccation): 5
Injury ratings of treated plants, day 6 (young potato plants; 6 days after application, 6 = complete desiccation): 5
Injury ratings of treated plants, day 17 (young potato plants; 17 days after application, 6 = complete desiccation): 5
Injury ratings of treated plants, day 22 (young potato plants; 22 days after application, 6 = complete desiccation): 5.5
Injury ratings of treated plants, day 27 (young potato plants; 27 days after application, 6 = complete desiccation): 5.5
Injury ratings of treated plants, […] (young potato plants; […] after application, 6 = complete desiccation): 3.5
All evaluations (total score) (young potato plants; total of all evaluation times): 34.5
Total Injury ratings, Total score ([2]; 60 G/a plus spray to drip): 69.2
Total injury ratings, 60 G/a ([2]; 60 G/a, 8 pots/treatment, 2 evaluations, rating 1-5 per pot, 1% Emsorb 6900): 61
Total injury ratings, Spray to drip ([2]; spray to drip, 2 pots/treatment, velvetleaf and foxtail, 1 evaluation): 8.2

CCCCCCCC(=O)O [4% caprylic acid, caprylic acid]
Total Injury ratings, combined, for two separate evaluations, Total Rating ([3]; 60 G/a plus spray to drip): 116.8
Total Injury ratings, combined, for two separate evaluations, 60 G/a ([3]; 60 G/a, 7 pots/treatment, rating 1-5 per pot, 1% Emsorb 6900): 60.7
Average rating/pot ([3]; scale 1-5): 4.49
Total Injury ratings, combined, for two separate evaluations, Spray to drip ([3]; spray to drip, 6 pots/treatment): 56.1

O=C(O)C(O)C(O)C(=O)O [L-Tartaric Acid (0.5%)]
pH Value [4]: 1.72
pH Value [5]: 1.52
Foliage Affected (%) (soybeans [6]): 0%
Overall Effect (soybeans [6]; 5 equals profound desiccation): 0

N.N.O=C(O)CCC(=O)O [ammonium succinate]
Rating of additive tested alone [7]: Since succinic acid (or ammonium succinate) tested alone had a rating of zero, pelargonic acid (or c/c) + succinic acid (or ammonium succinate) were synergistic. The exception was: 3% pelargonic acid + 1.26% ammonium succinate

O=C(O)CCC(=O)O [Succinic Acid (0.5)]
Overall Effect (Turf): 0

CCCCCCCC(=O)O [3% caprylic, caprylic acid]
Injury rating, total score for 2 evaluations, Total Rating ([8]; 60 G/a plus spray to drip): 178.4
Injury rating, total score for 2 evaluations, 60 G/a [8, 17]: 142
Average rating per pot ([8]; scale 1-5): 4.05
Injury rating, total score for 2 evaluations, Spray to drip ([8]; spray to drip): 36.6
Injury ratings based on 2 independent evaluations, 40 G/acre (plants [9]; 40 G/acre: chickweed, redroot pigweed, lambsquarter and green foxtail, each pot rated 1 to 5): 40.8
Injury ratings based on 2 independent evaluations, 60 G/acre (plants [9]; 60 G/acre: chickweed, redroot pigweed, lambsquarter, green foxtail, crabgrass and wheat, each pot rated 1 to 5): 51.6
Average rating per pot (plants [9]; [18]): 4.16
Injury rating, average per plot [10, 19]: 4
% desiccation (Day 12), foliage [10]: 80%
% desiccation (Day 12), pods [10]: 95%
% desiccation (Day 12), vines [10]: 92%
Injury rating, average per plot ([10]; Day 12): 4.73
Injury rating, total score for 2 evaluation, Total Rating ([11]; 60 G/a plus spray to drip): 123.5
Injury rating, total score for 2 evaluation, 60 G/a [11, 17]: 88.1
Average rating per pot ([11]; scale 1-5): 4.41
Injury rating, total score for 2 evaluation, Spray to drip ([11]; spray to drip): 35.4
Injury rating, average per plot [12, 20]: 3.5
Injury rating, average per plot ([12]; Day 2): 3.93
Injury rating, average per plot ([12]; Day 3): 3.93
Injury rating, average per plot ([12]; Day 4): 4
% desiccation (Day 12), foliage [12]: 50%
% desiccation (Day 12), pods [12]: 80%
% desiccation (Day 12), vines [12]: 10%
Injury rating, average per plot ([12]; Day 12): 4.2

O=C(O)CCC(=O)O [0.5% succinic acid, succinic acid]
Injury ratings, Total (plants [13]; 40 G/a + 60 G/a): 0
Injury ratings based on 2 independent evaluations, 40 G/a (plants [13]; 40 G/acre: Canadian thistle, velvet leaf, Johnson grass and giant foxtail, each pot rated 1 to 5): 0
Injury ratings based on 2 independent evaluations, 60 G/a (plants [13]; 60 G/acre: velvetleaf, Johnson grass and giant foxtail, each pot rated 1 to 5): 0
Average rating per pot (plants [13]; [18]): 0
Injury rating, average per plot [10, 19]: 0
% desiccation (Day 12), foliage [10]: 0%
% desiccation (Day 12), pods [10]: 0%
% desiccation (Day 12), vines [10]: 0%
Injury rating, average per plot ([10]; Day 12): 0
Total injury ratings, Total ([14]; 40 G/a, 60 G/a and spray to drip): 0
Total injury ratings, 40 G/a ([14]; 40 G/a, 9 pots/treatment, rating 1-5 per pot, 1.125% Emsorb 6900): 0
Total injury ratings, 60 G/a ([14]; 60 G/a, 10 pots/treatment): 0
Total injury ratings, Spray to drip ([14]; spray to drip, 7 pots/treatment): 0
Injury rating, average per plot [12, 20]: 0
Injury rating, average per plot ([12]; Day 2): 0
Injury rating, average per plot ([12]; Day 3): 0
Injury rating, average per plot ([12]; Day 4): 0
% desiccation (Day 12), foliage [12]: 0%
% desiccation (Day 12), pods [12]: 0%
% desiccation (Day 12), vines [12]: 0%
Injury rating, average per plot ([12]; Day 12): 0

CCCCCCCC(=O)O [Caprylic Acid (1%)]
Foliage Affected (%) (soybeans [15]): 25-30%
Overall Effect (soybeans [15]; 5 equals profound desiccation): 2.5

CCCCCC(=O)O [3% caproic, caproic acid]
Total Injury ratings, Total score ([16]; 60 G/a plus spray to drip): 20.9
Total injury ratings, 60 G/a ([16]; 60 G/a, 4 pots/treatment, lambsquarter, pigweed and velvetleaf, rating 1-5 per pot): 13.9
Total injury ratings, Spray to drip ([16]; spray to drip, 2 pots/treatment, lambsquarter and foxtail): 7
